{"source": "patent US11299496B2", "about": "“Ligands for alpha-7 nicotinic acetylcholine receptors and methods of treating neurological and inflammatory conditions” (Northeastern University, priority 2014, dated 2022)", "type_in_all_cases": "in vivo, mouse", "key": {"[1]": {"test_system": "formalin-injected mice", "assay": "Formalin test (intraplantar formalin, paw licking, paw edema)", "description": "A formalin test was carried out in an open plexiglas cage, with a mirror placed at a 45° angle behind the cage to allow an unobstructed view of the paws. Mice were allowed to acclimate for 15 min in the test cage prior to injection. Each animal was injected intraplantar with 20 μl of 2.5% formalin to the right hindpaw. Each mouse was then immediately placed in the test cage. Up to two mice at one time were observed during 0 to 5 min after injection (phase 1) and during 20-45 min post injection (phase 2). The period between the two phases of nociceptive responding is generally considered to be a phase of weak activity. The amount of time spent licking the injected paw was recorded with a digital stopwatch.\nFurther, the antinociceptive activity of drugs in phase II of the formalin test and their anti-allodynic response in the CCI model was tested. Mice received vehicle or methyllycaconatine (MLA, 10 mg/kg) prior to vehicle or an ED84 dose of the ago-PAM/PAM (determined from a dose-response experiment using the formalin intraplantar injection model). […] The MLA results were confirmed by testing the ED84 dose of the test compounds in the alpha-7 KO and wild type mice. Finally, it was tested whether tolerance develops to the antinociceptive effects of alpha-7 nAChR ago-PAM following 7 days of repeated injections of its ED84 dose. Mice were given the following treatments: vehicle (7 days of vehicle administration); acute alpha-7 nAChR test compounds (6 days of vehicle administration followed by alpha-7 nAChR ago-PAM on the last day); and repeated alpha-7 nAChR test compounds (7 days of alpha-7 nAChR PAM or ago-PAM)."}, "[2]": {"test_system": "CFA-injected mice", "assay": "Complete Freund's Adjuvant test (mechanical allodynia, thermal hyperalgesia)", "description": "Mice were injected with 20 μl of CFA (0.5 mg/ml of heat killed Mycobacterium tuberculosis, Sigma) in the intraplantar region of the right hindpaw. Paw diameter and thermal hyperalgesia (see paw withdrawal test) were measured 3 days after CFA injection. In separate groups of mice that received CFA, mechanical allodynia thresholds were determined according to previously published method (Ondachi et. al. J Med Chem. 2014 Feb. 13; 57(3):836-48. doi: 10.1021/jm401602p). Mice were placed in a plexiglas cage with mesh metal flooring and allowed to acclimate for 30 min before testing. A series of calibrated von Frey filaments (Stoelting, Wood Dale, Ill.) with logarithmically incremental stiffness ranging from 2.83 to 5.88 expressed as log 10 of [10 £ force in (mg)] were applied to the paw with a modified up-down method. In the absence of a paw withdrawal response to the initially selected filament, a thicker filament corresponding to a stronger stimulus was presented. In the event of paw withdrawal, the next weaker stimulus was chosen. Each hair was presented perpendicularly against the paw, with sufficient force to cause slight bending, and held 2-3 s. The stimulation of the same intensity was applied 5 times to the hindpaw at intervals of a few seconds. Three or more responses out of five stimulations were coded as a positive response. Once a positive response was detected, sequentially lower weight filaments were used to assess the sensory threshold for each paw. The allodynia scores were recorded in a blinded fashion.\nA similar sequence of drug treatment described for the formalin testing was used to test the antinociceptive effects of alpha-7 nAChRs ago-PAMs in the CFA model of inflammatory pain. […] Paw diameter and mechanical allodynia will be measured 3 days after CFA injection. We assessed the dose-response relationship of […]7 nAChRs ago-PAMs (4 doses) in reversing CFA-induced mechanical allodynia and paw edema."}, "[3]": {"test_system": "CCI mice", "assay": "Chronic constriction injury (CCI) model, mechanical allodynia (von Frey)", "description": "Mice were anesthetized with pentobarbital (45 mg/kg, i.p.). An incision was made just below the hipbone, parallel to the sciatic nerve. The right common sciatic nerve was exposed at the level proximal to the sciatic trifurcation, and a nerve segment 3-5 mm long was separated from surrounding connective tissue. Two loose ligatures with 6-0 silk suture were made around the nerve with a 1.0-1.5 mm interval between them. Muscles were closed with suture thread and the wound with wound clips. […] Any suture that remained after two weeks was removed from the healed surgical wound. Mechanical allodynia (von Frey test) was measured before and after drug injections.\nThe antiallodynic effects of test compounds were assessed in three experiments consisting of CCI mice and sham control mice. […] The anti-allodynic effects of alpha-7 nAChRs PAMs and ago-PAMs were tested (four doses and vehicle control, N=10 mice/group, administered i.p.) in the CCI model. Mice were assessed for mechanical allodynia 2 weeks after the CCI surgery. All these studies will be conducted in blinded manner. CCI and sham control mice received two conditioning sessions per day (vehicle in the morning and drug in the afternoon) over the course of 3 days, and were tested for a place preference on day 7 without any injections.\nPain behavioral data are presented as mean±S.E.M. (see FIGS. 5A and 5B). Statistical analysis was performed using the t-test or two-way analysis of variance test, followed by the post-hoc Bonferroni's test. All differences were considered significant at p<0.05, and significant differences are shown with asterisks in FIGS. 5A and 5B. ED50 values with 95% confidence limits (CL) were calculated by unweighted least-squares linear regression."}, "[4]": {"test_system": "normal mice", "assay": "Morris water maze memory test", "description": "This test was carried out in normal mice using a Morris water maze."}}, "data": [{"smiles": "NS(=O)(=O)c1ccc2c(c1)[C@H]1C=CC[C@H]1[C@@H](c1ccc(Br)cc1)N2", "note": "[Compound 1, (3aR,4S,9bS)-4-(4-bromophenyl)-3a,4,5,9b-tetrahydro-3H-cyclopenta[c]quinoline-8-sulfonamide]", "values": [{"measurement": "activity in alpha-7 nAChR knockout mice", "setting": "[1]; FIG. 3D", "result": "inactive"}, {"measurement": "effect of GAT107 after MLA", "setting": "[1]; MLA 10 mg/kg prior, FIG. 3C", "result": "reversed the effects of GAT107"}, {"measurement": "nociceptive behavior of formalin phase II", "setting": "[1]; given i.v., FIG. 3A", "result": "dose-dependently and significantly block the nociceptive behavior of formalin phase II"}, {"measurement": "nociceptive behavior of formalin phase II", "setting": "[1]; given orally, FIG. 3B", "result": "dose-dependently and significantly block the nociceptive behavior of formalin phase II"}, {"measurement": "paw edema induced by formalin intraplantar injection", "setting": "[1]; mouse, in vivo", "result": "reduced the paw edema"}, {"measurement": "antiallodynic and antihyperalgesic effects after MLA", "setting": "[2]; data not shown", "result": "MLA blocked the effects"}, {"measurement": "duration of antiallodynic effect", "setting": "[2]; i.p., dose dependent", "result": 180, "unit": "min"}, {"measurement": "duration of antihyperalgesic effect", "setting": "[2]; mouse, in vivo", "result": 60, "unit": "min"}, {"measurement": "anti-allodynic effect in CCI mice", "setting": "[3]; i.p., FIG. 5A", "result": "significant anti-allodynic effect"}, {"measurement": "effect on sham mice", "setting": "[3]; sham control mice", "result": "no effect on sham mice"}, {"measurement": "memory defects in scopolamine-treated mice", "setting": "[4]; FIG. 6", "result": "dose dependently reversed the memory defects"}, {"measurement": "latency to find the platform, compound given alone", "setting": "[4]; normal mice", "result": "reduced the latency for the mice to find the platform"}]}]}
